From ChEMBL document CHEMBL1132847, “Substituted 1,6-naphthyridines as human cytomegalovirus inhibitors: conformational requirements” (Bioorg Med Chem Lett, 2000)
≈ marks a conversion by molar mass, not a printed value.

System: Human betaherpesvirus 5
Experiment: Concentration required to inhibit human cytomegalovirus by 50 percent
Assay type: functional, organism-based

SMILES | IC50 [µg/mL]
Cc1ccccc1CNC(=O)c1ccc2cnccc2n1 | 1 (≈ 3.61 µM)
CCOc1ccccc1CNC(=O)c1ccc2cnccc2n1 | 0.1 (≈ 0.325 µM)
COc1ccccc1CN(C)C(=O)c1ccc2cnccc2n1 | > 25
Cc1cncc2ccc(C(=O)NCc3ccccc3OC(C)C)nc12 | 0.0004 (≈ 0.00119 µM)
O=C(NC1CCCOc2ccccc21)c1ccc2cnccc2n1 (stereo not drawn) | 0.5 (≈ 1.57 µM)
O=C(NCc1ccccc1OC(F)(F)F)c1ccc2cnccc2n1 | 1 (≈ 2.88 µM)
CC(C)Oc1ccccc1CNC(=O)c1ccc2cnccc2n1 | 0.005 (≈ 0.0156 µM)
O=C(NC1CCOc2ccccc21)c1ccc2cnccc2n1 (stereo not drawn) | 20 (≈ 65.5 µM)
